Reference: patent US20130123222A1, “Synergistic Anti-Cancer Activity of SR16388 with Anti-Mitotic Drugs” (SRI INTERNATIONAL, INC., priority 2011, published 2013)

How the values were obtained:
[1] = tested on: various cancer cell lines; test: 11×7 synergism hit rate over all cell lines (by algorism); format: cell-based; conditions: for % Hit rate: combination with SR16388, identified by algorism, all cell lines; for interaction with SR16388 in 11×7 experiments: in combination with SR16388
Description: (§1) SR16388 was synthesized in house.
(§2) Within the same type of cancer cells, some cell lines have more synergistic hits than others. Melanoma and breast cancer cell lines had the highest hit rate.

[2] = tested on: panel of 48 to 60 cell lines; test: 5×4 combination screen with SR16388, CellTiter-Glo viability; synergy by pattern recognition; conditions: for no effect (number of cell lines) / synergy (number of cell lines) / % synergy: in combination with SR16388, 5x4-T1; for no effect (number of cell lines) / synergy (number of cell lines): pattern recognition, of 60 cell lines incl. no data; for % synergy: share of cell lines with data
Protocol: Cells were treated with compounds alone or in combination for three days and CellTiter-Glo® Luminescent Cell Viability Assay (Promega Corp.) was used as the endpoint to measure cell viability.
Cells were cultured in DMEM with 10% fetal bovine serum and used between passage 2 and passage 20. Cells were harvested on Day-1 (FIG. 1A) and re-supspended to the corresponding seeding density and seeded with Wellmate (ThermoFisher) to 384 plates (BD or GBO).
40 mM Compound stocks in 100% DMSO were made. Master plates were made with Janus (PerkinElmer), then further diluted and added to the cell plates with Matrix Platemate (Thermo) on Day 0.
CellTiter-Glo® Luminescent Cell Viability Assay (Promega Corp.) was used to measure ATP as an indicator of viable cells on Day 3 using Envision (PerkinElmer) and back up reader Analyst HT (MDS) and Gen5 (BioTek).
Single point, 5×4 checkque board platemap was used in the initial screening.
Relative Luminescent Units (RLU) were plotted against corresponding drug concentrations and fitted with standard four parameter sigmoidal curve with custom coded R program or Calcusyn (Biosoft, Cambridge, UK).

[3] = tested on: panel of 48 to 60 cell lines; test: 5×4 combination screen with SR16388; synergism hit rate by algorithm (Z score); format: cell-based; conditions: in combination with SR16388, all 20 (5×4) dose combinations
Protocol: as §1
5) A “combination score” was assigned to each specific combination (Ca1b1x): C=1 if Za1b1x>3*SD and C=0 if Za1b1x≦3*SD score);
6) Hit rate of each combination was calculated by comparing the sum of the combination scores of all 20 (5×4) dose combinations with all cell lines to the total number of data points of that specific combination;
7) Hit rate were ranked from high to low to identify potential synergistic combinations.

cancer cell lines = test: Combination cell viability assay, general observations on ratios and confirmed synergy; format: cell-based; conditions: for interaction with SR16388 (confirmed): in combination with SR16388
Protocol: Cells were treated with compounds alone or in combination for three days and CellTiter-Glo® Luminescent Cell Viability Assay (Promega Corp.) was used as the endpoint to measure cell viability. […] Cells were harvested on Day-1 (FIG. 1A) and re-supspended to the corresponding seeding density and seeded with Wellmate (ThermoFisher) to 384 plates (BD or GBO). […] Master plates were made with Janus (PerkinElmer), then further diluted and added to the cell plates with Matrix Platemate (Thermo) on Day 0. CellTiter-Glo® Luminescent Cell Viability Assay (Promega Corp.) was used to measure ATP as an indicator of viable cells on Day 3 using Envision (PerkinElmer) and back up reader Analyst HT (MDS) and Gen5 (BioTek). Relative Luminescent Units (RLU) were plotted against corresponding drug concentrations and fitted with standard four parameter sigmoidal curve with custom coded R program or Calcusyn (Biosoft, Cambridge, UK).

HCT116 = test: 11×7 synergism hit rate; format: cell-based; conditions: Colon Cancer HCT116, combination with SR16388
Description: as §1, §2

OVCAR8 = test: 11×7 synergism hit rate; format: cell-based; conditions: Ovarian Cancer OVCAR8, combination with SR16388
Description: as §1, §2

SR = test: 11×7 synergism hit rate; format: cell-based; conditions: Leukemia SR, combination with SR16388
Description: as §1, §2

OVCAR5 = test: 11×7 synergism hit rate; format: cell-based; conditions: Ovarian Cancer OVCAR5, combination with SR16388
Description: as §1, §2

HS578T = test: 11×7 synergism hit rate; format: cell-based; conditions: Breast Cancer HS578T, combination with SR16388
Description: as §1, §2

MDAMB468 = test: 11×7 synergism hit rate; format: cell-based; conditions: Breast Cancer MDAMB468, combination with SR16388
Description: as §1, §2

MOLT4 = test: 11×7 synergism hit rate; format: cell-based; conditions: Leukemia MOLT4, combination with SR16388
Description: as §1, §2

A498 = test: 11×7 synergism hit rate; format: cell-based; conditions: Renal Cancer A498, combination with SR16388
Description: as §1, §2

OVCAR3 = test: 11×7 synergism hit rate; format: cell-based; conditions: Ovarian Cancer OVCAR3, combination with SR16388
Description: as §1, §2

ADRRES = test: 11×7 synergism hit rate; format: cell-based; conditions: Ovarian Cancer ADRRES, combination with SR16388
Description: as §1, §2

SNB19 = test: 11×7 synergism hit rate; format: cell-based; conditions: CNS Cancer SNB19, combination with SR16388
Description: as §1, §2

ACHN = test: 11×7 synergism hit rate; format: cell-based; conditions: Renal Cancer ACHN, combination with SR16388
Description: as §1, §2

SW620 = test: 11×7 synergism hit rate; format: cell-based; conditions: Colon Cancer SW620, combination with SR16388
Description: as §1, §2

HOP92 = test: 11×7 synergism hit rate; format: cell-based; conditions: NSCLC HOP92, combination with SR16388
Description: as §1, §2

NCIH322M = test: 11×7 synergism hit rate; format: cell-based; conditions: NSCLC NCIH322M, combination with SR16388
Description: as §1, §2

PCS = test: 11×7 synergism hit rate; format: cell-based; conditions: Prostate Cancer PCS, combination with SR16388
Description: as §1, §2

SKMEL28 = test: 11×7 synergism hit rate; format: cell-based; conditions: Melanoma SKMEL28, combination with SR16388
Description: as §1, §2

MDAMB435 = test: 11×7 synergism hit rate; format: cell-based; conditions: Melanoma MDAMB435, combination with SR16388
Description: as §1, §2

For CC[C@]1(O)C[C@H]2CN(CCc3c([nH]c4ccccc34)[C@@](C(=O)OC)(c3cc4c(cc3OC)N(C=O)[C@H]3[C@@](O)(C(=O)OC)[C@H](OC(C)=O)[C@]5(CC)C=CCN6CC[C@]43[C@@H]65)C2)C1 [Vincristine], the “% Hit rate” value [1] was 10.91%, the “interaction with SR16388 in 11×7 experiments” value [1] was “synergistic effect” and the “interaction with SR16388 in the screen of 30 cancer therapeutic agents” value (“interaction with SR16388 in the screen” below) [2] was “Synergistic anti-proliferation”. The “no effect (number of cell lines)” value [2] was 19, the “synergy (number of cell lines)” value [2] was 23 and the “% synergy” value [2] was 55%. The “% hit/combo” value [3] was 2.08%, the “interaction with SR16388 (confirmed)” value (cancer cell lines) was “synergistic anti-proliferation effect” and the “% Hit rate” value (HCT116) was 6%. For the same compound, the “% Hit rate” value (OVCAR8) was 10%, the “% Hit rate” value (SR) was 0% and the “% Hit rate” value (OVCAR5) was 1%. For the same compound, the “% Hit rate” value (HS578T) was 17%, the “% Hit rate” value (MDAMB468) was 5% and the “% Hit rate” value (MOLT4) was 16%. For the same compound, the “% Hit rate” value (A498) was 12%, the “% Hit rate” value (OVCAR3) was 3% and the “% Hit rate” value (ADRRES) was 1%. For the same compound, the “% Hit rate” value (SNB19) was 27%, the “% Hit rate” value (ACHN) was 8% and the “% Hit rate” value (SW620) was 5%. The “% Hit rate” value (HOP92) was 8%, the “% Hit rate” value (NCIH322M) was 18% and the “% Hit rate” value (PCS) was 1%. The “% Hit rate” value (SKMEL28) was 22% and the “% Hit rate” value (MDAMB435) was 6%.

CC[C@]1(O)C[C@@H]2CN(CCc3c([nH]c4ccccc34)[C@@](C(=O)OC)(c3cc4c(cc3OC)N(C)[C@H]3[C@@](O)(C(=O)OC)[C@H](OC(C)=O)[C@]5(CC)C=CCN6CC[C@]43[C@@H]65)C2)C1 [Vinblastine] was tested, and the “% Hit rate” value [1] was 4.94%, the “interaction with SR16388 in 11×7 experiments” value [1] was “synergistic effect” and the “% Hit rate” value (HCT116) was 6%. The “% Hit rate” value (OVCAR8) was 5%, the “% Hit rate” value (SR) was 0% and the “% Hit rate” value (OVCAR5) was 0%. For the same compound, the “% Hit rate” value (HS578T) was 8%, the “% Hit rate” value (MDAMB468) was 3% and the “% Hit rate” value (MOLT4) was 8%. The “% Hit rate” value (A498) was 4%, the “% Hit rate” value (OVCAR3) was 4% and the “% Hit rate” value (ADRRES) was 0%. For the same compound, the “% Hit rate” value (SNB19) was 12%, the “% Hit rate” value (ACHN) was 3% and the “% Hit rate” value (SW620) was 8%. The “% Hit rate” value (HOP92) was 6%, the “% Hit rate” value (NCIH322M) was 3% and the “% Hit rate” value (PCS) was 1%. The “% Hit rate” value (SKMEL28) was 8% and the “% Hit rate” value (MDAMB435) was 4%.

In the case of CC(=O)O[C@H]1C(=O)[C@@]2(C)[C@H]([C@H](OC(=O)c3ccccc3)[C@]3(O)C[C@H](OC(=O)[C@H](O)[C@@H](NC(=O)c4ccccc4)c4ccccc4)C(C)=C1C3(C)C)[C@]1(OC(C)=O)CO[C@@H]1C[C@@H]2O [Paclitaxel], the “% Hit rate” value [1] was 14.88%, the “interaction with SR16388 in 11×7 experiments” value [1] was “synergistic effect” and the “interaction with SR16388 in the screen” value [2] was “Synergistic anti-proliferation”. For the same compound, the “no effect (number of cell lines)” value [2] was 18, the “synergy (number of cell lines)” value [2] was 40 and the “% synergy” value [2] was 69%. For the same compound, the “interaction with SR16388 (confirmed)” value (cancer cell lines) was “synergistic anti-proliferation effect”, the “interaction with more paclitaxel in the mixture” value (cancer cell lines; more paclitaxel than SR16388:Paclitaxel 67:33) was “antagonist interactions” and the “% Hit rate” value (OVCAR8) was 13%. The “% Hit rate” value (SR) was 1%, the “% Hit rate” value (OVCAR5) was 6% and the “% Hit rate” value (HS578T) was 23%. The “% Hit rate” value (MDAMB468) was 8%, the “% Hit rate” value (MOLT4) was 21% and the “% Hit rate” value (A498) was 10%. The “% Hit rate” value (OVCAR3) was 8%, the “% Hit rate” value (ADRRES) was 1% and the “% Hit rate” value (SNB19) was 27%. For the same compound, the “% Hit rate” value (ACHN) was 14%, the “% Hit rate” value (SW620) was 9% and the “% Hit rate” value (HOP92) was 10%. The “% Hit rate” value (NCIH322M) was 17%, the “% Hit rate” value (PCS) was 0% and the “% Hit rate” value (SKMEL28) was 35%. The “% Hit rate” value (MDAMB435) was 12%.

CC(=O)O[C@@]12CO[C@@H]1C[C@H](O)[C@@]1(C)C(=O)[C@H](O)C3=C(C)[C@@H](OC(=O)[C@H](O)[C@@H](NC(=O)OC(C)(C)C)c4ccccc4)C[C@@](O)([C@@H](OC(=O)c4ccccc4)[C@H]21)C3(C)C [Docetaxel] was tested, and the “% Hit rate” value [1] was 10.69%, the “interaction with SR16388 in 11×7 experiments” value [1] was “synergistic effect” and the “interaction with SR16388 in the screen” value [2] was “Synergistic anti-proliferation”. The “no effect (number of cell lines)” value [2] was 51, the “synergy (number of cell lines)” value [2] was 7 and the “% synergy” value [2] was 12%. The “% hit/combo” value [3] was 0.58%, the “interaction with SR16388 (confirmed)” value (cancer cell lines) was “synergistic anti-proliferation effect” and the “% Hit rate” value (HCT116) was 18%. For the same compound, the “% Hit rate” value (OVCAR8) was 6%, the “% Hit rate” value (SR) was 0% and the “% Hit rate” value (OVCAR5) was 1%. For the same compound, the “% Hit rate” value (HS578T) was 22%, the “% Hit rate” value (MDAMB468) was 6% and the “% Hit rate” value (MOLT4) was 13%. For the same compound, the “% Hit rate” value (A498) was 4%, the “% Hit rate” value (OVCAR3) was 8% and the “% Hit rate” value (ADRRES) was 3%. The “% Hit rate” value (SNB19) was 18%, the “% Hit rate” value (ACHN) was 4% and the “% Hit rate” value (SW620) was 8%. The “% Hit rate” value (HOP92) was 4%, the “% Hit rate” value (NCIH322M) was 14% and the “% Hit rate” value (PCS) was 3%. The “% Hit rate” value (SKMEL28) was 31% and the “% Hit rate” value (MDAMB435) was 14%.
